Results as given in the supplement of paper PMC11208160.
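Note: IS621 recombinase and bridge RNA in Escherichia coli cells.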

Assay: recombinant barcode read abundance after kanamycin selection (control-corrected) (log10(CPM+1)); higher = more efficient recombination; sequences stand for … in AGTGCAGAGAAAATCGGCCAGTTTTCTCTGCCTGCAGTCCGCATGCCGT…AGATTTATGCAGCGGACTGCCTTTCTCCCAAAGTGATAAACCGGACAGTATCATGGACCGGTTTTCCCGGTAATCCGTATTTGCAAGGTTGGTTTCACT; site = the 11-nt target
How it was run: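 Reported as log10(CPM+1), each value stands for recombination efficiency. That efficiency is the averaged, control-corrected counts per million of barcodes found at recombinant junctions. Cells from a pooled E. coli library pairing targets with IS621 bridge RNA target-binding loops were plated twice on chloramphenicol/ampicillin LB agar (control) and twice on chloramphenicol/ampicillin/kanamycin with 0.1 mM IPTG.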
In the case of “TGTAGGACTTGGGTTCTAACCTGTTGCCT (site AGTAGGACTAG)”, the “recombinant barcode read abundance (log10)” value is reported as 0.0549.
With “TGTAGGACTTGGGTTCTAACCTGTTGCCT (site CGTAGGACTAG)” the “recombinant barcode read abundance (log10)” value was 0.142.
In the case of “TGTAGGACTTGGGTTCTAACCTGTTGCCT (site GGTAGGACTAG)”, the “recombinant barcode read abundance (log10)” value is reported as 0.0264.
In the case of “TGTAGGACTTGGGTTCTAACCTGTTGCCT (site TGTAGGACTAG)”, the “recombinant barcode read abundance (log10)” value is reported as 0.553.
With “TGTAGTCCTTGGGTTCTAACCTGTTGCGT (site TGTAGTCCTAA)” the “recombinant barcode read abundance (log10)” value was 0.062.
For “TGTAGTCCTTGGGTTCTAACCTGTTGCGT (site TGTAGTCCTAC)”, the “recombinant barcode read abundance (log10)” value was 1.19.
In the case of “TGTAGTCCTTGGGTTCTAACCTGTTGCGT (site TGTAGTCCTAG)”, the “recombinant barcode read abundance (log10)” value is reported as 0.293.
In the case of “TGTAGTCCTTGGGTTCTAACCTGTTGCGT (site TGTAGTCCTAT)”, the “recombinant barcode read abundance (log10)” value is reported as 0.0925.
With “TGTCCCGCTTGGGTTCTAACCTGTTGCCT (site TGTATCGCTAG)” the “recombinant barcode read abundance (log10)” value was 0.0575.
In the case of “TGTCCCGCTTGGGTTCTAACCTGTTGCCT (site TGTCCCGCTAG)”, the “recombinant barcode read abundance (log10)” value is reported as 0.708.
With “TGTCCCTCTTGGGTTCTAACCTGTTGCCT (site TGTACCTCTAG)” the “recombinant barcode read abundance (log10)” value was 0.014.
For “TGTCCCTCTTGGGTTCTAACCTGTTGCCT (site TGTCCCTCTAG)”, the “recombinant barcode read abundance (log10)” value was 0.769.
For “TGTCCCTCTTGGGTTCTAACCTGTTGCCT (site TGTGCCTCTAG)”, the “recombinant barcode read abundance (log10)” value was 0.111.
In the case of “TGTCCCTCTTGGGTTCTAACCTGTTGCCT (site TGTTCCTCTAG)”, the “recombinant barcode read abundance (log10)” value is reported as 0.0962.
For “TGTCGACCTTGGGTTCTAACCTGTTGCCT (site AGTCGACCTAG)”, the “recombinant barcode read abundance (log10)” value was 0.596.
In the case of “TGTCGACCTTGGGTTCTAACCTGTTGCCT (site CGTCGACCTAG)”, the “recombinant barcode read abundance (log10)” value is reported as 0.113.
In the case of “TGTCGACCTTGGGTTCTAACCTGTTGCCT (site GGTCGACCTAG)”, the “recombinant barcode read abundance (log10)” value is reported as 0.0191.
In the case of “TGTCGACCTTGGGTTCTAACCTGTTGCCT (site TGTCGACCTAG)”, the “recombinant barcode read abundance (log10)” value is reported as 0.709.
With “TGTCGGACTTGGGTTCTAACCTGTTGCAG (site TGTCGGACTAT)” the “recombinant barcode read abundance (log10)” value was 0.197.
With “TGTCGGACTTGGGTTCTAACCTGTTGCAG (site TGTCGGACTCT)” the “recombinant barcode read abundance (log10)” value was 1.01.
For “TGTCGGACTTGGGTTCTAACCTGTTGCAG (site TGTCGGACTGT)”, the “recombinant barcode read abundance (log10)” value was 0.127.
With “TGTCGGACTTGGGTTCTAACCTGTTGCAG (site TGTCGGACTTT)” the “recombinant barcode read abundance (log10)” value was 0.041.
In the case of “TGTGCCTCTTGGGTTCTAACCTGTTGCCT (site TGTACCTCTAG)”, the “recombinant barcode read abundance (log10)” value is reported as 0.368.
In the case of “TGTGCCTCTTGGGTTCTAACCTGTTGCCT (site TGTCCCTCTAG)”, the “recombinant barcode read abundance (log10)” value is reported as 0.02.
With “TGTGCCTCTTGGGTTCTAACCTGTTGCCT (site TGTGCCTCTAG)” the “recombinant barcode read abundance (log10)” value was 0.564.
In the case of “TGTGCCTCTTGGGTTCTAACCTGTTGCCT (site TGTTCCTCTAG)”, the “recombinant barcode read abundance (log10)” value is reported as 0.173.
For “TGTTACCCTTGGGTTCTAACCTGTTGCCT (site TGGTACCCTAG)”, the “recombinant barcode read abundance (log10)” value was 0.0146.
With “TGTTACCCTTGGGTTCTAACCTGTTGCCT (site TGTTACCCTAG)” the “recombinant barcode read abundance (log10)” value was 0.434.
With “TGTTAGACTTGGGTTCTAACCTGTTGCCT (site TGTTAGACTAG)” the “recombinant barcode read abundance (log10)” value was 0.164.
In the case of “TGTTAGACTTGGGTTCTAACCTGTTGCCT (site TGTTAGTCTCG)”, the “recombinant barcode read abundance (log10)” value is reported as 0.113.
For “TGTTCATCTTGGGTTCTAACCTGTTGCCT (site TGTTCATCTAG)”, the “recombinant barcode read abundance (log10)” value was 0.00521.
In the case of “TGTTCATCTTGGGTTCTAACCTGTTGCCT (site TGTTCTTCTAG)”, the “recombinant barcode read abundance (log10)” value is reported as 0.0677.
With “TGTTCTTCTTGGGTTCTAACCTGTTGCCT (site TGTTCATCTAG)” the “recombinant barcode read abundance (log10)” value was 0.0245.
With “TGTTCTTCTTGGGTTCTAACCTGTTGCCT (site TGTTCTTCTAG)” the “recombinant barcode read abundance (log10)” value was 0.12.
For “TGTTGGCCTTGGGTTCTAACCTGTTGCCT (site TGTTGCACTAG)”, the “recombinant barcode read abundance (log10)” value was 0.0375.
For “TGTTGGCCTTGGGTTCTAACCTGTTGCCT (site TGTTGGCCTAG)”, the “recombinant barcode read abundance (log10)” value was 0.143.
In the case of “TTAACTACTTGGGTTCTAACCTGTTGCTA (site TTAACTACTAA)”, the “recombinant barcode read abundance (log10)” value is reported as 0.
With “TTAACTACTTGGGTTCTAACCTGTTGCTA (site TTAACTACTCA)” the “recombinant barcode read abundance (log10)” value was 0.0937.
For “TTAACTACTTGGGTTCTAACCTGTTGCTA (site TTAACTACTGA)”, the “recombinant barcode read abundance (log10)” value was 0.0479.
For “TTAACTACTTGGGTTCTAACCTGTTGCTA (site TTAACTACTTA)”, the “recombinant barcode read abundance (log10)” value was 0.152.
With “TTAACTACTTGGGTTCTAACCTGTTGCTG (site TTAACTACTAA)” the “recombinant barcode read abundance (log10)” value was 0.0189.
For “TTAACTACTTGGGTTCTAACCTGTTGCTG (site TTAACTACTCA)”, the “recombinant barcode read abundance (log10)” value was 0.425.
With “TTAACTACTTGGGTTCTAACCTGTTGCTG (site TTAACTACTGA)” the “recombinant barcode read abundance (log10)” value was 0.0228.
With “TTAACTACTTGGGTTCTAACCTGTTGCTG (site TTAACTACTTA)” the “recombinant barcode read abundance (log10)” value was 0.0609.
In the case of “TTACGCTCTTGGGTTCTAACCTGTTGCTA (site GGTTATCCTCC)”, the “recombinant barcode read abundance (log10)” value is reported as 0.191.
With “TTACGCTCTTGGGTTCTAACCTGTTGCTA (site TTACGCTCTTA)” the “recombinant barcode read abundance (log10)” value was 0.621.
For “TTACGGGCTTGGGTTCTAACCTGTTGCGG (site TTACGAGCTCC)”, the “recombinant barcode read abundance (log10)” value was 1.71.
For “TTACGGGCTTGGGTTCTAACCTGTTGCGG (site TTACGCGCTCC)”, the “recombinant barcode read abundance (log10)” value was 0.183.
With “TTACGGGCTTGGGTTCTAACCTGTTGCGG (site TTACGGGCTCC)” the “recombinant barcode read abundance (log10)” value was 2.58.
With “TTACGGGCTTGGGTTCTAACCTGTTGCGG (site TTACGTGCTCC)” the “recombinant barcode read abundance (log10)” value was 0.189.
With “TTACTAGCTTGGGTTCTAACCTGTTGCGT (site AGACTAGCTAC)” the “recombinant barcode read abundance (log10)” value was 0.0536.
In the case of “TTACTAGCTTGGGTTCTAACCTGTTGCGT (site TTACTAGCTAC)”, the “recombinant barcode read abundance (log10)” value is reported as 1.98.
In the case of “TTACTCTCTTGGGTTCTAACCTGTTGCCT (site TAACTCTCTAG)”, the “recombinant barcode read abundance (log10)” value is reported as 0.127.
In the case of “TTACTCTCTTGGGTTCTAACCTGTTGCCT (site TCACTCTCTAG)”, the “recombinant barcode read abundance (log10)” value is reported as 0.141.
In the case of “TTACTCTCTTGGGTTCTAACCTGTTGCCT (site TGACTCTCTAG)”, the “recombinant barcode read abundance (log10)” value is reported as 0.137.
In the case of “TTACTCTCTTGGGTTCTAACCTGTTGCCT (site TTACTCTCTAG)”, the “recombinant barcode read abundance (log10)” value is reported as 2.13.
With “TTAGGGACTTGGGTTCTAACCTGTTGCCT (site TTAGGGACTAG)” the “recombinant barcode read abundance (log10)” value was 2.18.
In the case of “TTAGGGACTTGGGTTCTAACCTGTTGCCT (site TTAGGGCCTAG)”, the “recombinant barcode read abundance (log10)” value is reported as 0.0947.
In the case of “TTAGGGACTTGGGTTCTAACCTGTTGCCT (site TTAGGGGCTAG)”, the “recombinant barcode read abundance (log10)” value is reported as 0.517.
With “TTAGGGACTTGGGTTCTAACCTGTTGCCT (site TTAGGGTCTAG)” the “recombinant barcode read abundance (log10)” value was 0.108.
With “TTAGGGGCTTGGGTTCTAACCTGTTGCCT (site TTAGGGACTAG)” the “recombinant barcode read abundance (log10)” value was 0.911.
In the case of “TTAGGGGCTTGGGTTCTAACCTGTTGCCT (site TTAGGGCCTAG)”, the “recombinant barcode read abundance (log10)” value is reported as 0.08.
In the case of “TTAGGGGCTTGGGTTCTAACCTGTTGCCT (site TTAGGGGCTAG)”, the “recombinant barcode read abundance (log10)” value is reported as 1.51.
In the case of “TTAGGGGCTTGGGTTCTAACCTGTTGCCT (site TTAGGGTCTAG)”, the “recombinant barcode read abundance (log10)” value is reported as 0.0155.
In the case of “TTAGGTCCTTGGGTTCTAACCTGTTGCAG (site TTAGATCCTAT)”, the “recombinant barcode read abundance (log10)” value is reported as 0.182.
In the case of “TTAGGTCCTTGGGTTCTAACCTGTTGCAG (site TTAGGTCCTCT)”, the “recombinant barcode read abundance (log10)” value is reported as 2.5.
For “TTAGTAACTTGGGTTCTAACCTGTTGCCT (site CTAGTACCTAG)”, the “recombinant barcode read abundance (log10)” value was 0.0115.
With “TTAGTAACTTGGGTTCTAACCTGTTGCCT (site TTAGTAACTAG)” the “recombinant barcode read abundance (log10)” value was 1.21.
For “TTAGTACCTTGGGTTCTAACCTGTTGCCT (site TTAGTACCTAG)”, the “recombinant barcode read abundance (log10)” value was 2.55.
For “TTAGTACCTTGGGTTCTAACCTGTTGCCT (site TTAGTCCCTAG)”, the “recombinant barcode read abundance (log10)” value was 0.218.
For “TTAGTACCTTGGGTTCTAACCTGTTGCCT (site TTAGTGCCTAG)”, the “recombinant barcode read abundance (log10)” value was 0.135.
In the case of “TTAGTACCTTGGGTTCTAACCTGTTGCCT (site TTAGTTCCTAG)”, the “recombinant barcode read abundance (log10)” value is reported as 0.369.
In the case of “TTAGTCCCTTGGGTTCTAACCTGTTGCCG (site CTAGTCCCTCG)”, the “recombinant barcode read abundance (log10)” value is reported as 1.09.
With “TTAGTCCCTTGGGTTCTAACCTGTTGCCG (site TTAGTCCCTCG)” the “recombinant barcode read abundance (log10)” value was 2.14.
For “TTAGTGCCTTGGGTTCTAACCTGTTGCCT (site TTAGTACCTAG)”, the “recombinant barcode read abundance (log10)” value was 1.55.
For “TTAGTGCCTTGGGTTCTAACCTGTTGCCT (site TTAGTCCCTAG)”, the “recombinant barcode read abundance (log10)” value was 0.0383.
In the case of “TTAGTGCCTTGGGTTCTAACCTGTTGCCT (site TTAGTGCCTAG)”, the “recombinant barcode read abundance (log10)” value is reported as 2.14.
